Source: PubChem BioAssay (NCI)
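1) Cells in 96-well plates. 2) Compound, 48 h, 5 concentrations. 3) Linear interpolation between surrounding doses. 4) Unreached endpoint = highest concentration. Abbreviation: GI50, concentration required for 50% inhibition of growth. The concentration for full growth arrest is given as TGI.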

What was measured:
Assay in all cases: inhibition of tumour cell growth, NCI panel, 48 h
A498 renal = system: A498 renal
SNB-19 CNS = system: SNB-19 CNS
OVCAR-4 ovarian = system: OVCAR-4 ovarian
HL-60(TB) leukemia = system: HL-60(TB) leukemia
SK-MEL-28 melanoma = system: SK-MEL-28 melanoma
HCT-116 colon = system: HCT-116 colon
EKVX NSCLC = system: EKVX NSCLC
MDA-MB-231 breast = system: MDA-MB-231 breast
OVCAR-5 ovarian = system: OVCAR-5 ovarian
NCI-H522 lung = system: NCI-H522 lung
LOX IMVI melanoma = system: LOX IMVI melanoma
MDA-MB-435 = system: MDA-MB-435
HOP-92 NSCLC = system: HOP-92 NSCLC
U251 CNS = system: U251 CNS
CAKI-1 renal = system: CAKI-1 renal
HT29 colon = system: HT29 colon
OVCAR-8 ovarian = system: OVCAR-8 ovarian
CCRF-CEM leukemia = system: CCRF-CEM leukemia
KM12 colon = system: KM12 colon
NCI-H460 lung = system: NCI-H460 lung
SNB-75 CNS = system: SNB-75 CNS
IGROV1 ovarian = system: IGROV1 ovarian
NCI-H226 lung = system: NCI-H226 lung
HS 578T breast = system: HS 578T breast
RXF 393 renal = system: RXF 393 renal
COLO 205 colon = system: COLO 205 colon
NCI/ADR-RES ovarian = system: NCI/ADR-RES ovarian
NCI-H23 lung = system: NCI-H23 lung
HCC-2998 colon = system: HCC-2998 colon
SF-539 CNS = system: SF-539 CNS
HCT-15 colon = system: HCT-15 colon
SF-295 CNS = system: SF-295 CNS
ACHN renal = system: ACHN renal
MOLT-4 leukemia = system: MOLT-4 leukemia
PC-3 prostate = system: PC-3 prostate
MALME-3M melanoma = system: MALME-3M melanoma
HOP-62 NSCLC = system: HOP-62 NSCLC
MCF7 breast = system: MCF7 breast
DU-145 prostate = system: DU-145 prostate
OVCAR-3 ovarian = system: OVCAR-3 ovarian
K-562 leukemia = system: K-562 leukemia
SK-OV-3 ovarian = system: SK-OV-3 ovarian
SF-268 CNS = system: SF-268 CNS
786-0 renal = system: 786-0 renal
SK-MEL-2 melanoma = system: SK-MEL-2 melanoma
SR leukemia = system: SR leukemia
SK-MEL-5 melanoma = system: SK-MEL-5 melanoma
M14 melanoma = system: M14 melanoma
A549 NSCLC = system: A549 NSCLC
SN12C renal = system: SN12C renal
T-47D breast = system: T-47D breast
RPMI-8226 leukemia = system: RPMI-8226 leukemia
UACC-257 melanoma = system: UACC-257 melanoma
SW-620 colon = system: SW-620 colon
UO-31 renal = system: UO-31 renal
UACC-62 melanoma = system: UACC-62 melanoma

COc1cnc2c(c1)C(=O)c1c-2n(CCCN2CCN(C)CC2)c(=O)c2cc(Cl)ccc12
GI50 (A498 renal): 0.959 µM
TGI (A498 renal): 9.61 µM
GI50 (SNB-19 CNS): 13.8 µM
TGI (SNB-19 CNS): 78.9 µM
GI50 (OVCAR-4 ovarian): 2.19 µM
TGI (OVCAR-4 ovarian): 18.1 µM
GI50 (HL-60(TB) leukemia): 18 µM
TGI (HL-60(TB) leukemia): 42.4 µM
GI50 (SK-MEL-28 melanoma): 2.3 µM
TGI (SK-MEL-28 melanoma): 5.04 µM
GI50 (HCT-116 colon): 0.982 µM
TGI (HCT-116 colon): > 100 µM
GI50 (EKVX NSCLC): 7.73 µM
TGI (EKVX NSCLC): 31.9 µM
GI50 (MDA-MB-231 breast): 10.7 µM
TGI (MDA-MB-231 breast): 23.2 µM
GI50 (OVCAR-5 ovarian): 3.56 µM
TGI (OVCAR-5 ovarian): 13.3 µM
GI50 (NCI-H522 lung): 6.32 µM
TGI (NCI-H522 lung): 52.1 µM
GI50 (LOX IMVI melanoma): 0.779 µM
TGI (LOX IMVI melanoma): 18.9 µM
GI50 (MDA-MB-435): 1.53 µM
TGI (MDA-MB-435): 3.14 µM
GI50 (HOP-92 NSCLC): 4.68 µM
TGI (HOP-92 NSCLC): 29.8 µM
GI50 (U251 CNS): 7.24 µM
TGI (U251 CNS): 49.6 µM
GI50 (CAKI-1 renal): 2.97 µM
TGI (CAKI-1 renal): 18.4 µM
GI50 (HT29 colon): 1.37 µM
TGI (HT29 colon): > 100 µM
GI50 (OVCAR-8 ovarian): 3.09 µM
TGI (OVCAR-8 ovarian): > 100 µM
GI50 (CCRF-CEM leukemia): 0.527 µM
TGI (CCRF-CEM leukemia): 20.1 µM
GI50 (KM12 colon): 3.37 µM
TGI (KM12 colon): 20.5 µM
GI50 (NCI-H460 lung): 0.377 µM
TGI (NCI-H460 lung): 13.8 µM
GI50 (SNB-75 CNS): 0.932 µM
TGI (SNB-75 CNS): 17.6 µM
GI50 (IGROV1 ovarian): 10.4 µM
TGI (IGROV1 ovarian): 87.1 µM
GI50 (NCI-H226 lung): 12.3 µM
TGI (NCI-H226 lung): 36.2 µM
GI50 (HS 578T breast): 12.9 µM
TGI (HS 578T breast): 36.2 µM
GI50 (RXF 393 renal): 1.9 µM
TGI (RXF 393 renal): 13.3 µM
GI50 (COLO 205 colon): 1.3 µM
TGI (COLO 205 colon): > 100 µM
GI50 (NCI/ADR-RES ovarian): 0.979 µM
TGI (NCI/ADR-RES ovarian): 24.5 µM
GI50 (NCI-H23 lung): 6.27 µM
TGI (NCI-H23 lung): 24.6 µM
GI50 (HCC-2998 colon): 11.3 µM
TGI (HCC-2998 colon): 26.8 µM
GI50 (SF-539 CNS): 2.15 µM
TGI (SF-539 CNS): 5.31 µM
GI50 (HCT-15 colon): 4.08 µM
TGI (HCT-15 colon): 27.9 µM
GI50 (SF-295 CNS): 0.674 µM
TGI (SF-295 CNS): 20.5 µM
GI50 (ACHN renal): 0.783 µM
TGI (ACHN renal): 14.3 µM
GI50 (MOLT-4 leukemia): 0.345 µM
TGI (MOLT-4 leukemia): 5.33 µM
GI50 (PC-3 prostate): 3.6 µM
TGI (PC-3 prostate): 65.7 µM
GI50 (MALME-3M melanoma): 5.77 µM
TGI (MALME-3M melanoma): 19.5 µM
GI50 (HOP-62 NSCLC): 0.95 µM
TGI (HOP-62 NSCLC): 36 µM
GI50 (MCF7 breast): 0.487 µM
TGI (MCF7 breast): 21.7 µM
GI50 (DU-145 prostate): 3.18 µM
TGI (DU-145 prostate): 19.8 µM
GI50 (OVCAR-3 ovarian): 15.1 µM
TGI (OVCAR-3 ovarian): 29.3 µM
GI50 (K-562 leukemia): 1.19 µM
TGI (K-562 leukemia): 3.51 µM
GI50 (SK-OV-3 ovarian): 10.1 µM
TGI (SK-OV-3 ovarian): 36.4 µM
GI50 (SF-268 CNS): 4.75 µM
TGI (SF-268 CNS): 29.1 µM
GI50 (786-0 renal): 2.47 µM
TGI (786-0 renal): 31.8 µM
GI50 (SK-MEL-2 melanoma): 5.29 µM
TGI (SK-MEL-2 melanoma): 23.2 µM
GI50 (SR leukemia): 0.584 µM
TGI (SR leukemia): 27.3 µM
GI50 (SK-MEL-5 melanoma): 11 µM
TGI (SK-MEL-5 melanoma): 25.2 µM
GI50 (M14 melanoma): 1.71 µM
TGI (M14 melanoma): 3.61 µM
GI50 (A549 NSCLC): 4.17 µM
TGI (A549 NSCLC): > 100 µM
GI50 (SN12C renal): 10.2 µM
TGI (SN12C renal): 58.2 µM
GI50 (T-47D breast): 22.8 µM
TGI (T-47D breast): 98.7 µM
GI50 (RPMI-8226 leukemia): 13.9 µM
TGI (RPMI-8226 leukemia): 45.1 µM
GI50 (UACC-257 melanoma): 4.04 µM
TGI (UACC-257 melanoma): 22.3 µM
GI50 (SW-620 colon): 0.299 µM
TGI (SW-620 colon): 12.8 µM
GI50 (UO-31 renal): 3.74 µM
TGI (UO-31 renal): 22.8 µM

c1ccc2cc(Cn3c(-c4ccc5ccccc5c4)[n+](Cc4ccc5ccccc5c4)c4ccccc43)ccc2c1
GI50 (HL-60(TB) leukemia): 0.293 µM
TGI (HL-60(TB) leukemia): 0.944 µM
GI50 (SK-MEL-28 melanoma): 0.362 µM
TGI (SK-MEL-28 melanoma): 1.28 µM
GI50 (HCT-116 colon): 0.193 µM
TGI (HCT-116 colon): 0.598 µM
GI50 (MDA-MB-231 breast): 0.218 µM
TGI (MDA-MB-231 breast): 0.961 µM
GI50 (OVCAR-5 ovarian): 0.41 µM
TGI (OVCAR-5 ovarian): 1.59 µM
GI50 (MDA-MB-435): 0.296 µM
TGI (MDA-MB-435): 1.03 µM
GI50 (HOP-92 NSCLC): 0.0852 µM
TGI (HOP-92 NSCLC): 0.416 µM
GI50 (KM12 colon): 0.269 µM
TGI (KM12 colon): 0.869 µM
GI50 (SNB-75 CNS): 0.182 µM
TGI (SNB-75 CNS): 0.827 µM
GI50 (NCI-H226 lung): 0.481 µM
TGI (NCI-H226 lung): 2.46 µM
GI50 (HCC-2998 colon): 0.365 µM
TGI (HCC-2998 colon): 1.47 µM
GI50 (SF-539 CNS): 0.381 µM
TGI (SF-539 CNS): 1.52 µM
GI50 (ACHN renal): 0.752 µM
TGI (ACHN renal): 2.04 µM
GI50 (UACC-62 melanoma): 0.277 µM
TGI (UACC-62 melanoma): 0.89 µM
GI50 (PC-3 prostate): 0.228 µM
TGI (PC-3 prostate): 0.763 µM
GI50 (MALME-3M melanoma): 0.215 µM
TGI (MALME-3M melanoma): 0.649 µM
GI50 (DU-145 prostate): 0.399 µM
TGI (DU-145 prostate): 1.52 µM
GI50 (SW-620 colon): 0.31 µM
TGI (SW-620 colon): 1.22 µM
GI50 (UO-31 renal): 0.781 µM
TGI (UO-31 renal): 2.3 µM
